According to patent publication US8173428B2, “LNA oligonucleotides and the treatment of cancer” (Santaris Pharma A/S, priority 2004, dated 2012):
Oligonucleotides are written 5' to 3', each unit as a sugar letter and its base; * is a phosphorothioate linkage, no mark a phosphodiester; rarer units and linkages stand in square brackets, end groups in braces. Plain capitals give the bases only. l = locked nucleic acid (LNA); [5mC] = 5-methylcytosine; d = 2'-deoxy (DNA)

Tests used:
[1] = Stability in mouse plasma; type: in vitro ADME; settings: 20 μM, 37° C., up to 96 hours
Method: Stability of 20 μM SEQ ID NO. 2 and SEQ ID NO. 24 in human and mouse plasma (Li-Heparine (Taconic, M&B)) at 37° C. at different time aliquots: 0, 1, 2, 4, 24, 48 and 96 hours. A commercially available ladder was also included (10 and 20 mer are visible on the PAGE). (see FIG. 1)

cynomolgus monkeys = assay: i.v. MTD study in cynomolgus monkeys; type: in vivo; settings: dose escalation up to 160 mg/kg×3 (total 930 mg/kg) or 120 mg/kg×5 over 2 weeks
Method: The animals were treated with either a dose escalating design with a maximum dose of 160 mg/kg×3 (total dose of 930 mg/kg) or a 120 mg/kg×5 over 2 weeks.

Bcl-2 mRNA = Bcl-2 mRNA expression by real-time PCR in 15PC3 cells; type: cell-based, human
Method: (§1) To determine the relative Survivin mRNA level in oligonucleotide treated and untreated cells, the generated cDNA was used in quantitative PCR analysis using an iCycler from BioRad. The cDNA was diluted 5-fold and 8 μl was mixed with 52 μl Taqman probe master mix containing 30 μl Platinum Quantitative PCR SuperMix UDG 2×PCR master mix (Invitrogen), 3 μl 20× Taqman probe and primer mix (forward primer: 5′[…] (SEQ ID NO:29), final 0.9 μM. Reverse primer: 5′[…] (SEQ ID NO:30), final 0.6 μM and taqman probe: FAM-[…]-TAMRA (SEQ ID NO:31), final 0.1 μM) and 19 μl H2O. The 60 μl were dispersed in two wells (96 well plates) with 25 μl in each well. For human Bcl-2 the PCR primers were:
forward primer: 5′ […] 3′ (final concentration in the assay; 0.6 μM) (SEQ ID NO: 32) reverse primer: 5′ […] 3′ (final concentration in the assay; 0.6 μM) (SEQ ID NO: 33) and the PCR probe was: 5′ FAM-[…]-TAMRA 3′ (final concentration in the assay; 0.1 μM) (SEQ ID NO: 34). […]
The primers and probe were obtained from […] (France). To normalize any variance in sample preparation, the endogenous GAPDH mRNA was quantified using a pre-developed Taqman assay reagent from Applied Biosystems (4310884E) according to manufacturer's Instructions. […] Relative quantities of Survivin mRNA were determined from the calculated threshold cycle using the iCycler IQ Real Time Detection System software.

human Survivin RNA = assay: Survivin mRNA knockdown in transfected 15PC3 cells by real-time PCR; type: cell-based
Method: Cell culturing and transfections: 15PC3 cells were seeded in 12-well plates and grown for two days at 37° C. (5% CO2) in DMEM supplemented with 10% FBS, Glutamax I and Gentamicin. When the cells were 60-70% confluent, they were transfected in duplicates with different concentrations of oligonucleotides (0.2-25 nM) using Lipofectamine 2000 (10 μg/ml). Transfections were carried out essentially as described by Dean et al. (1994, JBC 269:16416-16424). In short, cells were incubated for 10 min. with Lipofectamine in OptiMEM followed by addition of oligonucleotide to a total volume of 0.5 ml transfection mix per well. […] Cells were then harvested for protein and RNA analysis.
Total RNA was isolated using RNeasy mini kit (Qiagen). Cells were washed with PBS, and Cell Lysis Buffer (RTL, Qiagen) supplemented with 1% mercaptoethanol was added directly to the wells. After a few minutes, the samples were processed according to manufacturer's instructions.
First strand synthesis was performed using OmniScript Reverse Transcriptase kit according to the manufacturer's instructions (Qiagen). For each sample, 0.5 μg total RNA was adjusted to 12 μl and mixed with 0.2 μl poly (dT)12-18 (0.5 μg/μl) (Life Technologies), 2 μl dNTP mix (5 mM each), 2 μl 10× RT buffer, 0.5 μl RNAguard™ RNase Inhibitor (33 units/ml, Amersham) and 1 μl OmniScript Reverse Transcriptase followed by incubation at 37° C. for 60 min. and heat inactivation at 93° C. for 5 min.
as §1, with “were: […]” for “were:”
The primers and probe were obtained from […] (France). To normalize any variance in sample preparation, the endogenous GAPDH mRNA was quantified using a pre-developed Taqman assay reagent from Applied Biosystems (4310884E) according to manufacturer's Instructions. Two-fold dilutions of cDNA, synthesised from untreated 15PC3 cells (expressing both Survivin and GAPDH), was used to prepare standard curves for the assays. The PCR program was as follows: 50° C. for 2 min., 95° C. for 10 min. followed by 40 cycles of 95° C. 15 sec., 60° C. 1 min. Relative quantities of Survivin mRNA were determined from the calculated threshold cycle using the iCycler IQ Real Time Detection System software.
In accordance with the present invention, a series of oligonucleotides were designed to target different regions of the human Survivin RNA, using published sequences (GenBank accession number NM_001168).
LNA oligonucleotides were evaluated for their potential to knockdown Survivin mRNA in 15PC3 cells. The data are presented as percentage down-regulation relative to mock transfected cells. Transcript steady state was monitored by Real-time PCR and normalised to the GAPDH transcript steady state, see Table 3. Note that all LNA C are 5-methyl-Cytosine.

[2] = Survivin mRNA down-regulation relative to mock, normalised to GAPDH, standard deviation in brackets, at least three experiments

## 5′-^MeCsTs^MeCsAsastscscsastsgsgs^MeCsAsGsc-3′ (l[5mC]*lT*l[5mC]*lA*dA*dT*dC*dC*dA*dT*dG*dG*l[5mC]*lA*lG*dC) [SEQ ID NO. 2]
[1]
  Stability in mouse plasma (degradation products): No degradation products
Cynomolgus monkeys
  clinical signs: no notable clinical signs
  liver and kidney toxicity: evidence of liver and kidney toxicity was apparent in all animals
Bcl-2 mRNA; 10 nM, 24 hours, 15PC3 cells, single agent or combined with control oligonucleotides
  Bcl-2 mRNA expression: have effects on Survivin and Bcl-2 expression
Bcl-2 mRNA; summary statement, conditions not given
  Bcl-2 down-regulation: down-regulation of Bcl-2
Human Survivin RNA; 2 nM combined with 10 nM Taxol, 24 hours and 48 hours, relative to mock (0.1% DMSO)
  Survivin mRNA expression: down-regulated
Human Survivin RNA; 2 nM, 24 hours and 48 hours, relative to mock (0.1% DMSO)
  Survivin mRNA expression: down-regulated
Human Survivin RNA; 10 nM, 24 hours, single agent or combined with control oligonucleotides
  Survivin mRNA expression: have effects on Survivin and Bcl-2 expression
Human Survivin RNA; [2]
  IC50: 2.9 nM
  IC75 [nM]: 4.8 (0.3) nM
